Data taken from ChEMBL document CHEMBL3351572, “Almiramide D, cytotoxic peptide from the marine cyanobacterium Oscillatoria nigroviridis” (Bioorg Med Chem, 2014).
Where a SMILES comes first, the peptide text is derived from it. [ ]: non-standard residue; d: D form. The star is where a group is joined. Oct7ynoyl(2R-Me) = C#CCCCC[C@@H](C)C(=O)*; NMeF = CN[C@@H](Cc1ccccc1)C(=O)O; NMeI = CC[C@H](C)[C@H](NC)C(=O)O; NMeV = CN[C@H](C(=O)O)C(C)C; NMeA = CN[C@@H](C)C(=O)O

What was measured:
A549 = experiment: Cytotoxicity against human A549 cells after 48 hrs by alamar blue assay; assay type: functional, cell-based; settings: A549, 48 h
[1] = Cytotoxicity against human PC3 cells after 48 hrs by alamar blue assay; assay type: functional, cell-based; settings: PC-3, 48 h
MDA-MB-231 = experiment: Cytotoxicity against human MDA-MB-231 cells after 48 hrs by alamar blue assay; assay type: functional, cell-based; settings: MDA-MB-231, 48 h
HT-29 = experiment: Cytotoxicity against human HT-29 cells after 48 hrs by alamar blue assay; assay type: functional, cell-based; settings: HT-29, 48 h
HeLa = experiment: Cytotoxicity against human HeLa cells after 48 hrs by alamar blue assay; assay type: functional, cell-based
Artemia = experiment: Cytotoxicity against brine shrimps larvae assessed as mortality after 48 hrs; assay type: organism-based; settings: in vivo

## C#CCCCC[C@@H](C)C(=O)N(C)[C@H](C(=O)N(C)[C@H](C(=O)N[C@H](C(=O)N(C)[C@H](C(=O)N[C@@H](C)C(N)=O)[C@@H](C)CC)[C@@H](C)CC)C(C)C)C(C)C ({Oct7ynoyl(2R-Me)}-[NMeV][NMeV]I[NMeI]A-NH2)
A549
  IC50: 59 µM
[1]
  IC50: 62 µM
MDA-MB-231
  IC50: 821 µM
HT-29
  IC50: 91 µM
HeLa
  IC50: 17 µM

## C#CCCCC[C@@H](C)C(=O)N(C)[C@H](C(=O)N(C)[C@H](C(=O)N[C@H](C(=O)N(C)[C@@H](C)C(=O)N(C)[C@@H](Cc1ccccc1)C(N)=O)C(C)C)C(C)C)C(C)C [ALMIRAMIDE B] ({Oct7ynoyl(2R-Me)}-[NMeV][NMeV]V[NMeA][NMeF]-NH2)
A549
  IC50: 76 µM
[1]
  IC50: 107 µM
MDA-MB-231
  IC50: 13 µM
HT-29
  IC50: 100 µM
HeLa
  IC50: 53 µM

## COc1cccc2c1C(=O)c1c(O)c3c(c(O)c1C2=O)C[C@@](O)(C(=O)CO)C[C@@H]3O[C@H]1C[C@H](N)[C@H](O)[C@H](C)O1 [DOXORUBICIN]
A549
  IC50: 14 µM
[1]
  IC50: 17 µM
Artemia
  Activity: Non-toxic
